This is an account of results in patent publication US20200323203A1, “SYNERGISTIC PESTICIDAL COMPOSITIONS AND METHODS FOR DELIVERY OF ACTIVE INGREDIENTS” (0903608 B.C. Ltd., priority 2017, published 2020).

A short description of series [1]: physchem. Conditions: aqueous with cosolvent or surfactant or cyclodextrin, kinetic from dmso stock.
For series [2], the system named is Fusarium oxysporum. In words: Synergistic Growth Inhibition Assay (MIC / FIC index), Fusarium oxysporum. The conditions noted are these: individual compound alone. Type of series: cell-based. The procedure:
(§1) In some embodiments, the synergistic action between the pesticidal active ingredient, and the at least one C6-C10 (or alternatively C11 or C12) saturated or unsaturated aliphatic acid components of the pesticidal compositions according to embodiments of the present disclosure was tested using a Synergistic Growth Inhibition Assay, which is derived from and related to a checkerboard assay as is known in the art for testing of combinations of antimicrobial agents. In the Synergistic Growth Inhibition Assay used in accordance with some embodiments of the present disclosure, multiple dilutions of combinations of pesticidal active ingredient and at least one C6-C10 saturated or unsaturated aliphatic acid agents are tested in individual cells for inhibitory activity against a target pest or pathogenic organism. In one such embodiment, the combinations of pesticidal active ingredient and C6-C10 (or alternatively C11 or C12) saturated or unsaturated aliphatic acid agents may preferably be tested in decreasing concentrations. In a further such embodiment, the combinations of pesticidal active ingredient and C6-C10 (or alternatively C11 or C12) saturated or unsaturated aliphatic acid agents may be tested in increasing concentrations. These multiple combinations of the pesticidal active ingredient and at least one C6-C10 (or alternatively C11 or C12) saturated or unsaturated aliphatic acid agents may be prepared in 96-well microtiter plates. In one such embodiment, the Synergistic Growth Inhibition Assay then comprises rows which each contain progressively decreasing concentrations of the pesticidal active ingredient and one or more C6-C10 (or alternatively C11 or C12) saturated or unsaturated aliphatic acid agents to test for the MIC of the agents in combination at which growth of the target pest or pathogen is inhibited. Thus, each well of the microtiter plate is a unique combination of the two agents, at which inhibitory efficacy of the combination against the target pest or pathogen can be determined.
In one embodiment according to the present disclosure, for each row of microtiter cells in the Synergistic Growth Inhibition Assay, the FIC index is calculated from the lowest concentration of the pesticidal active ingredient and one or more C6-C10 saturated or unsaturated aliphatic acid agents necessary to inhibit growth of a target pest or pathogen. The FIC of each component is derived by dividing the concentration of the agent present in that well of the microtiter plate by the minimal inhibitory concentration (MIC) needed of that agent alone to inhibit growth of the target pest or pathogen. The FIC index is then the sum of these values for both agents in that well of the microtiter plate. The FIC index is calculated for each row as follows:
FICindex=MICa/MICA+MICb/MICB
Fractional inhibitory concentration indices may then used as measure of synergy. […] When the FIC index is equal to 1, the combination is additive.
Then, serial dilutions of these initial compositions in successive wells in the row of the microtiter plate were used to assay the pesticidal composition under the same conditions to determine the concentration of the composition combining the two agents corresponding to the microtiter well in which growth inhibition of the target pest or organism ceases. […]

The subject of series [3] is Botrytis cinerea. In words: Synergistic Growth Inhibition Assay (MIC / FIC index), Botrytis cinerea. Type of series: cell-based. The method, then: as §1, with “In one such embodiment, the Synergistic Growth Inhibition Assay then comprises rows which each contain progressively decreasing concentrations of the pesticidal active ingredient and one or more C6-C10 (or alternatively C11 or C12) saturated or unsaturated aliphatic acid agents to test for the MIC of the agents in combination at which growth of the target pest or pathogen is inhibited.” left out
(§2) In one embodiment according to the present disclosure, for each row of microtiter cells in the Synergistic Growth Inhibition Assay, the FIC index is calculated from the lowest concentration of the pesticidal active ingredient and one or more C6-C10 saturated or unsaturated aliphatic acid agents necessary to inhibit growth of a target pest or pathogen. […] The FIC index is calculated for each row as follows: […]

Series [4] concerns Sclerotinia sclerotiorum. In words: Synergistic Growth Inhibition Assay (MIC / FIC index), Sclerotinia sclerotiorum. In kind it is cell-based. The method, then: as §1, with “In one such embodiment, the Synergistic Growth Inhibition Assay then comprises rows which each contain progressively decreasing concentrations of the pesticidal active ingredient and one or more C6-C10 (or alternatively C11 or C12) saturated or unsaturated aliphatic acid agents to test for the MIC of the agents in combination at which growth of the target pest or pathogen is inhibited.” left out
as §2

A short description of series [5]: Solubility / effective solubilized concentration in 10% DMSO/90% PDB by HPLC. Conditions: aqueous with cosolvent or surfactant or cyclodextrin, kinetic from dmso stock.
Where [6] appears, read: effective solubilized concentration of working stock solution, DMSO stock diluted 10-fold in PDB, verified by HPLC.
The mark [7] stands for this setting: solubility, in 10% DMSO/90% PDB, HPLC.
Where [8] appears, read: 10% DMSO/90% potato dextrose broth (PDB).

The structures appear in SMILES notation. ≈ marks a conversion by molar mass, not a printed value. Where “and” joins values, the source holds several entries; their conditions need not be identical. Identical values can stand only once.

Turning to `Fc1ccc([C@]2(Cn3cncn3)O[C@H]2c2ccccc2Cl)cc1` (racemic) [Epoxiconazole], the solubility in series [1] came to 0.03 mg/mL (≈ 91 µM). Take `C/C=C/C=C/C(=O)[O-].[K+]` [(2E,4E)-2,4-hexadienoic acid, potassium salt]: in series [2] (24 hour incubation), the “MIC (A) / MIC (B) of the compound used alone” value (shortened to “MIC (A) / MIC (B)”) is 625 mg/L. Turning to `CO/C=C(/C(=O)OC)c1ccccc1Oc1cc(Oc2ccccc2C#N)ncn1` [Azoxystrobin], the “MIC (A) / MIC (B)” value in series [3] (individual compound alone, incubation period of 48 hours) was 37.5 mg/L and 75 mg/L; in series [2] (incubation period of 48 hours), 75 mg/L and 150 mg/L; in series [4] (individual compound alone, incubation period of 7 days), 150 mg/L. As for `N#Cc1c(Cl)c(Cl)c(Cl)c(C#N)c1Cl` [Chlorothalonil], the concentration in solution in series [5] (setting [6]) (solubility) was 0.002 mg/mL (≈ 7.52 µM). For `CCCCCCCCCC(=O)O` [Decanoic acid, decanoic acid], the minimum inhibitory concentration (MIC) in series [3] (Botrytis cinerea, 96 h, Compound B alone, incubation 4 days) turned out to be 500 mg/L. The “MIC (A) / MIC (B)” value in series [2] (24 hour incubation) is 250 mg/L. With `CCCCCCCCCC(=O)[O-].[K+]` [Decanoic acid, potassium salt, decanoic acid, potassium salt], in series [2] (24 hour incubation), the “MIC (A) / MIC (B)” value amounted to 78.12 mg/L. As for `CCCCCCCCCCCC(=O)O` [Dodecanoic acid, dodecanoic acid], the “MIC (B)” value turned out to be 50 mg/L in series [3] (Compound B alone, incubation 48 hours) and 50 mg/L in series [4] (Compound B alone, incubation 7 days). On to `N#Cc1c[nH]cc1-c1cccc2c1OC(F)(F)O2` [Fludioxonil, fludioxonil], for which the solubility in series [5] (setting [6]) turned out to be 0.021 mg/mL (≈ 84.6 µM); in series [5] (setting [7]) it was 0.0154 mg/mL (≈ 62 µM).

As for `CCCCCC(=O)O` [Hexanoic acid, hexanoic acid], in series [2] (incubation period of 48 hours), the “MIC (A) / MIC (B)” value worked out at 156.2 mg/L. Take `COCC(=O)N(c1c(C)cccc1C)C(C)C(=O)OC` (centres unmarked) [Metalaxyl]: the solubility in series [5] (setting [6]) stood at 0.316 mg/mL (≈ 1130 µM). Regarding `CCCC1COC(Cn2cncn2)(c2ccc(Cl)cc2Cl)O1` (centres unmarked) [Propiconazole], the concentration in solution in series [5] (setting [8]) (solubility) came to 0.089 mg/mL (≈ 260 µM). On to `COC(=O)N(OC)c1ccccc1COc1ccn(-c2ccc(Cl)cc2)n1` [Pyraclostrobin, pyraclostrobin], for which the solubility in series [5] (setting [6]) was found to be 0.015 mg/mL (≈ 38.7 µM); in series [5] (setting [7]) it was 0.0154 mg/mL (≈ 39.7 µM).

For the compound `C/C=C(/C)C(=O)O[C@H]1C[C@@H](OC(C)=O)[C@@]2(C)CO[C@H]3[C@H]4O[C@@H]5C[C@@H](c6ccoc6)C(C)=C5[C@@]4(C)[C@H](CC(=O)OC)[C@]1(C)[C@@H]32` [Salannin], the minimum inhibitory concentration (MIC) in series [4] (Sclerotinia sclerotiorum, […], Compound A alone, incubation 7 days) is 500 mg/L. In series [5] (setting [8]), `CC(C)(C)C(O)(CCc1ccc(Cl)cc1)Cn1cncn1` (centres unmarked) [Tebuconazole] had a solubility of 0.45 mg/mL (≈ 1460 µM).

In general, solubility refers to the dissolved amount per volume that the medium holds. A high value points to much dissolved substance. What is called MIC is the lowest concentration that inhibits growth of the organism.
